Source: patent publication US9290436B2, “Compositions containing carboxylic acid-substituted derivatives” (Elizabeth Arden, Inc., priority 2008, dated 2016)

What was measured:
[1] = Six-week double-blind clinical evaluation for the treatment of red and brown pigmented skin; format: in vivo, human; details: 0.5% in vehicle, twice a day to facial area for 6 weeks; expert grading of Canfield VISIA-CR RBX images; women ages 40-70
Method: A six-week double-blind clinical evaluation was performed, comparing a control vehicle to idebenone dipalmitoyl glycerate for the treatment of red and brown pigmented skin. Approximately 36 women, ages 40-70 with moderate hyperpigmentation and reddening of the skin were selected to participate in the study. Subjects were randomly assigned to one of three groups. Group I received a product with no idebenone active ingredient (vehicle), Group II received the same vehicle with 0.5% Idebenone (Hydroxydecyl Ubiquinone) added, and Group III received the same vehicle with 0.5% of Idebenone Dipalmitoyl Glycerate added. Subjects were instructed to apply the product twice a day (morning and evening) to the facial area for 6 weeks. Canfield VISIA-CR RBX images were made at baseline and after 6 weeks use and analyzed. Digital and UV photographs were also taken, standardizing distance and positioning of the subjects, pre and post product application.

[2] = Maximization Test (repeat insult patch test) for contact-sensitizing potential; format: in vivo, human; details: Vehicle+1% test substance, occlusive patch, 5 induction exposures with SLS pre-treatment, single challenge; graded 48 or 72 hours after application of challenge patches; healthy adult volunteers
Method: A study was performed to evaluate the contact-sensitizing potential of a topical Facial Cream containing idebenone dipalmitoyl glycerate (Vehicle+1% idebenone dipalmitoyl glycerate) using the Maximization Test. The test was a repeat insult patch test wherein the test material was applied under an occlusive dressing to the upper outer arm, volar forearm or back repeatedly to the same site for five 48-hour induction periods, followed 10-14 days later by a single challenge to a naive skin site. The test sample was coded Cream A and tested as supplied viz. neat. All test materials were stored under ambient conditions in an inaccessible location under the supervision of the investigator.
The test subjects were all healthy, adult volunteers over the age of 18 years. […]

| Molecule | subjects responded with a decrease in brown pigmentation [1] [%] | subjects responded with less redness [1] [%] | subjects with contact allergy / positive reaction (recordable level of skin sensitization) after challenge [2] |
| --- | --- | --- | --- |
| COC1=C(OC)C(=O)C(CCCCCCCCCCO)=C(C)C1=O [idebenone, 6-(10-hydroxydecyl)-2,3-dimethoxy-5-methyl-1,4-benzoquinone] | 67 | 58 |  |
| COC1=C(OC)C(=O)C(CCCCCCCCCCOP(=O)(O)O)=C(C)C1=O [idebenone phosphate ester] |  |  | Four subjects exhibited positive reactions |
| 3-oxo-3-(9-(2,4,5-trimethyl-3,6-dioxocyclohexa-1,4-dienyl)monyloxy)propane-1,2-diyl dipalmitate [idebenone dipalmitoyl glycerate] | 75 | 58 |  |
